These results are taken from ChEMBL document CHEMBL4507319 (2021).

As a reminder, the IC50 is the concentration at which inhibition is half-maximal. The low end stands for inhibition by little substance, the high end for a need for much substance.

For test [1], the target named is Mitogen-activated protein kinase kinase kinase kinase 5 (Homo sapiens) (UniProt Q9Y4K4). Nature of the test: MAP4K5(h) Eurofins kinase panel. Particulars: Compound concentration 1.0 uM.
The target in test [2] is Aurora kinase B (Homo sapiens) (UniProt Q96GD4). Nature of the test: Aurora-B(h) Eurofins kinase panel. The settings on record: Compound concentration 1.0 uM.
Chain of Aurora kinase B (Homo sapiens) (Q96GD4 whole entry): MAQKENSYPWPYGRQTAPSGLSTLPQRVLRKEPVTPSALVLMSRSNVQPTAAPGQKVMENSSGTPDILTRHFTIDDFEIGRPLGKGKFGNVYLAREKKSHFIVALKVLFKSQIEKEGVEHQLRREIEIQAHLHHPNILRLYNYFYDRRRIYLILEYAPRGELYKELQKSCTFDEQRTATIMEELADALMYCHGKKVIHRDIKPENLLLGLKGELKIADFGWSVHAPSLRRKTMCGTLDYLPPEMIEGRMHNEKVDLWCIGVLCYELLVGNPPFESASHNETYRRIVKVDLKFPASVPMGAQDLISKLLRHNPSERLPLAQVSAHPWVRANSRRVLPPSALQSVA
The target in test [3] is Ribosomal protein S6 kinase alpha-5 (Homo sapiens, UniProt O75582).
Chain of Ribosomal protein S6 kinase alpha-5 (O75582 whole entry): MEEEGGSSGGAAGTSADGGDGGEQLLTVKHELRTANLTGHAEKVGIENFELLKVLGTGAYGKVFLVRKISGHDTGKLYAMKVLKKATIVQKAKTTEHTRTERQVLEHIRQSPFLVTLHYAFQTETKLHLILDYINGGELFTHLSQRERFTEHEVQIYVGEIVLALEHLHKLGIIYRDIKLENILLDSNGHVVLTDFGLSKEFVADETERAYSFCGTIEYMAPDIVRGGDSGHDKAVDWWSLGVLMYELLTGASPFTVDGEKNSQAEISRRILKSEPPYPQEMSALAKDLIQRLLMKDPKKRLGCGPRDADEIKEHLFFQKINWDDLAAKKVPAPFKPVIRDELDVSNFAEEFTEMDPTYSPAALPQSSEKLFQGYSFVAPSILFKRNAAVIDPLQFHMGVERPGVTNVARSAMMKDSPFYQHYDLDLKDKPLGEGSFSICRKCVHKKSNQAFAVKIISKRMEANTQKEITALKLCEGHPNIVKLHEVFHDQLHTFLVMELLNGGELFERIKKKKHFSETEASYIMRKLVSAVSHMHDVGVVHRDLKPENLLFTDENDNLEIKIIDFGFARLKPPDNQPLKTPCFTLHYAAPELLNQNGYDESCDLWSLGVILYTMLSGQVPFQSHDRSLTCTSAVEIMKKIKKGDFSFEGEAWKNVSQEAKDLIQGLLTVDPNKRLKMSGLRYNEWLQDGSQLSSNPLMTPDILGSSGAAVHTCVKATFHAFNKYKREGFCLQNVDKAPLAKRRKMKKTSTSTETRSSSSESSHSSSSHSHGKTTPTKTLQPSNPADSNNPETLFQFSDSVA
In test [4] the target is Mitogen-activated protein kinase kinase kinase 20 (Homo sapiens) (UniProt Q9NYL2). The test can be described thus: ZAK(h) Eurofins kinase panel. The settings on record: Compound concentration 1.0 uM.
Test [5] concerns the target T1, Serine/threonine-protein kinase MAK (Homo sapiens) (UniProt P20794).
T1 sequence (whole entry): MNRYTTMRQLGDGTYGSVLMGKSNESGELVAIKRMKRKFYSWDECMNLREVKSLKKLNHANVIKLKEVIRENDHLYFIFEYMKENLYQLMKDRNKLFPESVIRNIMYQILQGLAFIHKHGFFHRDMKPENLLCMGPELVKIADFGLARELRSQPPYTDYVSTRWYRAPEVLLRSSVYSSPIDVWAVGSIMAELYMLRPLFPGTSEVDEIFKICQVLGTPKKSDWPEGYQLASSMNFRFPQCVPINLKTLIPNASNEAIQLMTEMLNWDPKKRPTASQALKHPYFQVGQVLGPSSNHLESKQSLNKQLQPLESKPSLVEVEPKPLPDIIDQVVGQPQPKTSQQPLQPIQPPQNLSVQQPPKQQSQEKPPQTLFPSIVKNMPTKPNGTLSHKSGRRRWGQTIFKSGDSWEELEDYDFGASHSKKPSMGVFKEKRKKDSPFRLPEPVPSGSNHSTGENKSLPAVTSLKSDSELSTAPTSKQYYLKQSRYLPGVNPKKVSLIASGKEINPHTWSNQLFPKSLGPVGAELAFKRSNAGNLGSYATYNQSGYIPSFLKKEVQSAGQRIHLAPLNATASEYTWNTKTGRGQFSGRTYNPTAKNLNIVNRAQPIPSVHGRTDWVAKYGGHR
The test can be described thus: MAK(h) Eurofins kinase panel. The settings on record: Compound concentration 1.0 uM.

Test [6] addresses Ribosomal protein S6 kinase alpha-1 (Homo sapiens, UniProt Q15418).
Test [7] has as its target T2, cAMP-dependent protein kinase catalytic subunit PRKX (Homo sapiens) (UniProt P51817).
T2 sequence (whole entry): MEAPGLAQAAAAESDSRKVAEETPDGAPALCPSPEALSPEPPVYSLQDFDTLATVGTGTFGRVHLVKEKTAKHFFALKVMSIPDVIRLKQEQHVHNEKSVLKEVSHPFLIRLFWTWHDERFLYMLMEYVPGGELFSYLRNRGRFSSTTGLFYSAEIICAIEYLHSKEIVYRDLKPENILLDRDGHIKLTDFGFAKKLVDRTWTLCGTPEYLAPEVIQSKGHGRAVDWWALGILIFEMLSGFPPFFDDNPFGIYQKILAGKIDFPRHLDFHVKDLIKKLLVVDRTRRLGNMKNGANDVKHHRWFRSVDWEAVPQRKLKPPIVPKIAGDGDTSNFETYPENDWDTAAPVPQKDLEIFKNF
The test can be described thus: PrKX(h) Eurofins kinase panel. The settings on record: Compound concentration 1.0 uM.

The target of test [8] is NT-3 growth factor receptor (Homo sapiens) (UniProt Q16288). The test can be described thus: TrkC(h) Eurofins kinase panel. The settings on record: Compound concentration 1.0 uM.
Chain of NT-3 growth factor receptor (Homo sapiens) (Q16288 32-839 limits assumed): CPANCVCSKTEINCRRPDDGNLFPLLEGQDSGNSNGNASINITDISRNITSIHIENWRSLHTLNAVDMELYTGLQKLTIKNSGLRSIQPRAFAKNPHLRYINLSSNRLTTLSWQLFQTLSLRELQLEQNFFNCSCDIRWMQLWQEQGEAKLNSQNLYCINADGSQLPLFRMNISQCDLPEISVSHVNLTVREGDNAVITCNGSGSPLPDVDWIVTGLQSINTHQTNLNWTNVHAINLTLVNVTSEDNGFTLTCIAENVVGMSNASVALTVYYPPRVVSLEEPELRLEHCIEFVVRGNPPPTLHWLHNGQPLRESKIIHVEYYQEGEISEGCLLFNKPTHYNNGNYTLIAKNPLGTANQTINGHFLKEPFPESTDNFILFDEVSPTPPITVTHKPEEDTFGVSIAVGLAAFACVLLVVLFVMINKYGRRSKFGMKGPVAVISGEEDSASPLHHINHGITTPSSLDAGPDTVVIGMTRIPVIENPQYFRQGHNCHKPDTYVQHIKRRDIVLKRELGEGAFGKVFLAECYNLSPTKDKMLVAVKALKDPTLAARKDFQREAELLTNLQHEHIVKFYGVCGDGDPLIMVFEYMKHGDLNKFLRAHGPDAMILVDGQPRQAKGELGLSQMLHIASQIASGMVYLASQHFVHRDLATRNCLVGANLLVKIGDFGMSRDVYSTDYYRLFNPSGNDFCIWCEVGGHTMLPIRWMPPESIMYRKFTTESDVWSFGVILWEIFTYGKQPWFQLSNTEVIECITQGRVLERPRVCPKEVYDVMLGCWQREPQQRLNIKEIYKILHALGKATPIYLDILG
Test [9] concerns the target Serine/threonine-protein kinase B-raf (Homo sapiens) (UniProt P15056). The test can be described thus: B-Raf(h) Eurofins kinase panel. The settings on record: Compound concentration 1.0 uM.
Test [10] has as its target T3, Serine/threonine-protein kinase Nek9 (Homo sapiens) (UniProt Q8TD19).
T3 sequence (whole entry): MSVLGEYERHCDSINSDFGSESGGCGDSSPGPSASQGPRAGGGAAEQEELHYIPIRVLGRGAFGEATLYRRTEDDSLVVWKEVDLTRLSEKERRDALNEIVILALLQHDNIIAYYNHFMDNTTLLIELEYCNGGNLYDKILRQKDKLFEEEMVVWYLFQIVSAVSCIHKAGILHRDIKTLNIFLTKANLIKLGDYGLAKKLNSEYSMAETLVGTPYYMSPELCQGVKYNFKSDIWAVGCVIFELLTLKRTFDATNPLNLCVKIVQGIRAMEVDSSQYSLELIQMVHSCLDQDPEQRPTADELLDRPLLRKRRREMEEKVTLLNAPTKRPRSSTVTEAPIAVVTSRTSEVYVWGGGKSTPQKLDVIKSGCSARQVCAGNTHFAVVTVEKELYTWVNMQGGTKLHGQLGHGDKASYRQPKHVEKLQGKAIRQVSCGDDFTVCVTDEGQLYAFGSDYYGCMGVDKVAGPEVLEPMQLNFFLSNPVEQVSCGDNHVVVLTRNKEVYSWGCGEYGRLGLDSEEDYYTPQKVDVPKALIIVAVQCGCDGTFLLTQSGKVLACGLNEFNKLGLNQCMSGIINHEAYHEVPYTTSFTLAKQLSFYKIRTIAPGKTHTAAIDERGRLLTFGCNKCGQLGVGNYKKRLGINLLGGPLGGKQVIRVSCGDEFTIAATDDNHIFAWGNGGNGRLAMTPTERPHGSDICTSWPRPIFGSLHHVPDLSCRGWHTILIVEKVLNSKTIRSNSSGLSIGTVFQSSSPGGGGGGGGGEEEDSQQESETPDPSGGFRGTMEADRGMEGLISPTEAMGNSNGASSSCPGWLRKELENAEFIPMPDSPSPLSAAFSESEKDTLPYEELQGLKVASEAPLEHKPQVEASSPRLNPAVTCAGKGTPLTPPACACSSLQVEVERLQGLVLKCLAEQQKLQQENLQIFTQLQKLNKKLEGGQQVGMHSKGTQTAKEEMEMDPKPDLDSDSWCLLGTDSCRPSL
The test can be described thus: NEK9(h) Eurofins kinase panel. Particulars: Compound concentration 1.0 uM.

Test [11] concerns the target Serine/threonine-protein kinase SIK2 (Homo sapiens) (UniProt Q9H0K1). Nature of the test: SIK2(h) Eurofins kinase panel. Particulars: Compound concentration 1.0 uM.
Test [12] addresses Protein kinase C gamma type (Homo sapiens) (UniProt P05129). The test can be described thus: PKCgamma(h) Eurofins kinase panel. The settings on record: Compound concentration 1.0 uM.
A further test deals with MDA-MB-231. The test can be described thus: MDA-MB- 231 cell line Proliferation assay. The class given is functional, Homo sapiens. The settings on record: time 3 day.

Chain of Serine/threonine-protein kinase SIK2 (Homo sapiens) (Q9H0K1 whole entry, looked up): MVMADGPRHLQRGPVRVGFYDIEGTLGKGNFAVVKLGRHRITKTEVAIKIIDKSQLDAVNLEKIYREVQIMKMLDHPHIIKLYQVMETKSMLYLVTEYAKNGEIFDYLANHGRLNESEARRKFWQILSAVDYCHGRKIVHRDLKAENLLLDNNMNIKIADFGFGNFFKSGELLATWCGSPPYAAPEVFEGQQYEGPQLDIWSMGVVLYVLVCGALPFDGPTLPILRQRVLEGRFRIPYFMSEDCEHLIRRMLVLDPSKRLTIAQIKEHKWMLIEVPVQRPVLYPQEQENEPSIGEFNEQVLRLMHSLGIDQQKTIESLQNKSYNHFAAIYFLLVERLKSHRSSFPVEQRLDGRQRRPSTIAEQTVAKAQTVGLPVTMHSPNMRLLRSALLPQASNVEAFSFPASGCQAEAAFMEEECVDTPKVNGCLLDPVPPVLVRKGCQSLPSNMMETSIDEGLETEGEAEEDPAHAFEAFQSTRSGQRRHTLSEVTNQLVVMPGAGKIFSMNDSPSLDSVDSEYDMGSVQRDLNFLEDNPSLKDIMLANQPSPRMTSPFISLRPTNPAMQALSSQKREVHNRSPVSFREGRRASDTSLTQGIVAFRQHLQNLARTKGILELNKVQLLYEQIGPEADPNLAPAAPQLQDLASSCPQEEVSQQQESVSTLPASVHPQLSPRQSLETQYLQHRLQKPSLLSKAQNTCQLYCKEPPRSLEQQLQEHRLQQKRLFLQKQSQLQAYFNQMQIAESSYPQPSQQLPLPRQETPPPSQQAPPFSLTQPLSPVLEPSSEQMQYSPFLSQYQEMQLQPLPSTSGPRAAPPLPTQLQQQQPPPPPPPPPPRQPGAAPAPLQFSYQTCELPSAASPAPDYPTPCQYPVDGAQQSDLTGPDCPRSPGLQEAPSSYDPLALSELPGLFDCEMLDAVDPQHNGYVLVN
Chain of Mitogen-activated protein kinase kinase kinase kinase 5 (Homo sapiens) (Q9Y4K4 whole entry, looked up): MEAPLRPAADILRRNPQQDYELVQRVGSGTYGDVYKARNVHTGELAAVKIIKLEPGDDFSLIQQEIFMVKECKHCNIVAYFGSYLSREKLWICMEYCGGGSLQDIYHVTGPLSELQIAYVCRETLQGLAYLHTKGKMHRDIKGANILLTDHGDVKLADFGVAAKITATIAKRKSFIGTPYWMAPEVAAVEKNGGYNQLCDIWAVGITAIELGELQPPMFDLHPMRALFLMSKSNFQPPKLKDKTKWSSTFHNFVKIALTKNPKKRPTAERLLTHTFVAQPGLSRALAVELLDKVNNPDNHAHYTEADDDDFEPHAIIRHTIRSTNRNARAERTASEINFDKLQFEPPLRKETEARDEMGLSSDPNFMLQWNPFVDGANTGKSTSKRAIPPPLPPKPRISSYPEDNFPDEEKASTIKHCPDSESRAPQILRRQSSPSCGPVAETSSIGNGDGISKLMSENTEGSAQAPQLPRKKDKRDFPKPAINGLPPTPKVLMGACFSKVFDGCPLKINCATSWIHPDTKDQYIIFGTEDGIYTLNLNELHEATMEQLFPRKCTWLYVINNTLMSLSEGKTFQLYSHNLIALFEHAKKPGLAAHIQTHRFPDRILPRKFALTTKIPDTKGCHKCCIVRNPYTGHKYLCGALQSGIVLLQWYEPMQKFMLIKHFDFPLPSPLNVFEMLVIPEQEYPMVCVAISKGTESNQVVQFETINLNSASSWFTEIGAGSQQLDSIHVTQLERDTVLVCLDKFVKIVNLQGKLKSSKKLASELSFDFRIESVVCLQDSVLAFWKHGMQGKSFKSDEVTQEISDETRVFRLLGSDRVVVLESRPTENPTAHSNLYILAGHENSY

Take `CCc1ccccc1C(=O)Nc1n[nH]c2c(C)c(F)c(C3C(C#N)=C(C)N(C)C(C)=C3C#N)cc12` [BAY-3827]: the % residual kinase activity was 95% in [1]; 76% in test [2]; 99% in test [4]; 95% in test [5]; 94% in test [7]; 133% in [8]. For the same compound, the % residual kinase activity was 99% in test [9], 47% in test [10], 68% in test [11] and 47% in [12]. In addition, the values for the concentration for half-maximal inhibition (IC50) in test [3] and in test [6] were 0.043 µM and 0.009 µM, respectively. The “Cell Proliferation IC50” value in the test with MDA-MB-231 is above 30 µM.
